# Measurements taken from patent US12264156B2, “Compounds and pharmaceutical compositions thereof for the treatment of diseases” (GALAPAGOS NV, priority 2018, dated 2025).
# Legend:
# [1] = system: LPS triggered IL-10 secretion in monocytes; experiment: Monocytes assay: LPS-triggered IL-10 (ELISA); format: cell-based, human; conditions: LPS 200 ng/mL, supernatant after 4 h, maximal fold change vs LPS only
# Method: (§1) SIK inhibition inhibits TNFα and increases IL-10 release in LPS triggered monocyte-derived macrophages (MdM) and dendritic cells (MdDCs) (Clark et al. 2012; Sundberg et al. 2014; Ozanne et al. 2015). This assay evaluates illustrative compounds of the invention for their inhibition of LPS-induced TNFα and LPS triggered IL-10 secretion in monocytes.
# (§2) PBMCs are isolated from human blood samples (buffycoats). The buffy coat is aseptically transferred into a 50 mL Falcon tube, and diluted 1/2 in PBS. Falcon tubes are filled with 20 mL Lymphoprep™, on top of which 25 mL of the buffy coat is carefully added, tubes are centrifuged for 35 min at 400 g in temperature controlled centrifuge, without brake, at 25° C. PBMCs are aspirated from the white interface layer between sample and Lymphoprep™. PBMCs are washed five times in PBS. Cells are resuspended in RPMI 1640 complete medium supplemented with 10% FBS, 1% P/S, and cell density is determined using a hematologic analyzer (Sysmex XS-500i).
# (§3) PBMCs are centrifuged at 300×g for 10 min and resuspended at a density of 1.0*10^7 cells/80 μL Miltenyi buffer (PBS, pH 7.4, 1% FBS, 2 mM EDTA).
# (§4) Starting from this point of the protocol all steps are performed on ice. 20 μL of CD14+ micro-beads are added per 1.0*10^7 cells, the tube is mixed and incubated for 15 min in the fridge at 4° C. Cell suspension volume is adjusted to total volume of 100 mL using Miltenyi buffer, mixed gently and subsequently centrifuged for 10 min at 300×g. Supernantant is discarded and cell pellet is resuspended in 12 mL of Miltenyi buffer.
# (§5) Four LS columns are placed in the MACS Separator (magnet) from Miltenyi Biotec, and are prewet by rinsing with 3 mL of MACS buffer per column. Three mL of cell suspension is added onto the column (max 1*10^8 of labelled cells/column), and columns are subsequently washed 3 times with 3 mL of Miltenyi buffer.
# (§6) The columns are removed from the magnets, and 5 mL of Miltenyi buffer are added to the column to flush out the CD14+ fraction by pushing the plunger into the column. The flushed fractions are collected in a fresh 50 mL Falcon and volume is adjusted to 30 mL using Miltenyi buffer, cells are centrifuged for 10 min at 300×g. The obtained cell pellet is resuspended in 10 mL RPMI w/o FBS, and cell density is determined using a hematologic analyser (Sysmex XS-500i). 100 000 cells are seeded in 80 μL per well of a 96-well plate in RPMI 1640 medium supplemented with 10% FBS, 1% P/S.
# (§7) A compound dilution plate is made in 100% DMSO by 3-fold dilution of 10 mM stock solution. An intermediate dilution plate (10× final concentration) is made by diluting the compound dilution plate 50-fold in RPMI medium.
# (§8) 10 μL of the 10× final concentration compound is added to the cells and incubated for 1 h at 37° C. before addition of trigger. No trigger conditions/trigger conditions are spiked with equal final DMSO concentrations of 0.2% DMSO. 10 μL of 10×LPS (final conc. 200 ng/mL) solution are added to all wells except for the ‘no trigger wells’ where 10 μL medium is added. Supernatant is collected after 4 h of LPS triggering.
# A Lumitrac 600 Greiner 384-well plate is coated with 40 μL of capture antibody (final concentration of 1 μg/mL in 1×PBS) and stored overnight at 4° C. The next day the plate is washed three times with PBST (PBS+0.05% Tween20) and once with PBS followed by the addition of 100 μL of blocking buffer (1% BSA−5% Sucrose) and plates are sealed and incubated for at least 4 h at RT. After washing the plate once with PBST and once with PBS, 40 μL of standard or sample are added (IL-10 standard curve is prepared using a 1/2 serial dilution starting from […]; dilutions are made in dilution buffer (PBS+1% BSA)). Plates are washed twice with PBST, and once with PBS, after which 35 μL of the detection antibody is added (final concentration 0.143 μg/mL diluted in dilution buffer) and plates are incubated for at least 2 h at RT. […]
# [2] = system: LPS-induced TNFα in monocytes; experiment: Monocytes assay: LPS-triggered TNFα (ELISA); format: cell-based, human; conditions: Homo sapiens, Monocyte, LPS 200 ng/mL, supernatant after 4 h
# Method: as §1, §2, §3, §4, §5, §6, §7, §8
# A Lumitrac 600 Greiner 384-well plate is coated with 40 μL of capture antibody (BD Pharmingen, Cat #551220) reaching a final concentration of 1 μg/mL in 1×PBS and stored overnight at 4° C.
# The plate is then washed once with PBST (PBS+0.05% Tween20) and once with PBS followed by the addition of 100 μL of blocking buffer (1% Bovine Serum Albumin (BSA)−5% Sucrose) and plates are sealed and incubated for at least 4 h at RT. After washing the plate once with PBST and once with PBS, […]. Plates are washed twice with PBST, and once with PBS, after which 35 μL of the detection antibody is added (final concentration 0.25 μg/mL diluted in dilution buffer) and plates are incubated for at least 2 h at RT. […]
# SIK3 = target: T1, SIK3 (Homo sapiens, UniProt Q9Y2K2); experiment: ADP-Glo kinase assay, SIK3; format: biochemical; conditions: ADP-Glo SIK kinase assay
# T1 construct: purchased SignalChem S12-11G-100
# T1 sequence (Q9Y2K2 whole entry): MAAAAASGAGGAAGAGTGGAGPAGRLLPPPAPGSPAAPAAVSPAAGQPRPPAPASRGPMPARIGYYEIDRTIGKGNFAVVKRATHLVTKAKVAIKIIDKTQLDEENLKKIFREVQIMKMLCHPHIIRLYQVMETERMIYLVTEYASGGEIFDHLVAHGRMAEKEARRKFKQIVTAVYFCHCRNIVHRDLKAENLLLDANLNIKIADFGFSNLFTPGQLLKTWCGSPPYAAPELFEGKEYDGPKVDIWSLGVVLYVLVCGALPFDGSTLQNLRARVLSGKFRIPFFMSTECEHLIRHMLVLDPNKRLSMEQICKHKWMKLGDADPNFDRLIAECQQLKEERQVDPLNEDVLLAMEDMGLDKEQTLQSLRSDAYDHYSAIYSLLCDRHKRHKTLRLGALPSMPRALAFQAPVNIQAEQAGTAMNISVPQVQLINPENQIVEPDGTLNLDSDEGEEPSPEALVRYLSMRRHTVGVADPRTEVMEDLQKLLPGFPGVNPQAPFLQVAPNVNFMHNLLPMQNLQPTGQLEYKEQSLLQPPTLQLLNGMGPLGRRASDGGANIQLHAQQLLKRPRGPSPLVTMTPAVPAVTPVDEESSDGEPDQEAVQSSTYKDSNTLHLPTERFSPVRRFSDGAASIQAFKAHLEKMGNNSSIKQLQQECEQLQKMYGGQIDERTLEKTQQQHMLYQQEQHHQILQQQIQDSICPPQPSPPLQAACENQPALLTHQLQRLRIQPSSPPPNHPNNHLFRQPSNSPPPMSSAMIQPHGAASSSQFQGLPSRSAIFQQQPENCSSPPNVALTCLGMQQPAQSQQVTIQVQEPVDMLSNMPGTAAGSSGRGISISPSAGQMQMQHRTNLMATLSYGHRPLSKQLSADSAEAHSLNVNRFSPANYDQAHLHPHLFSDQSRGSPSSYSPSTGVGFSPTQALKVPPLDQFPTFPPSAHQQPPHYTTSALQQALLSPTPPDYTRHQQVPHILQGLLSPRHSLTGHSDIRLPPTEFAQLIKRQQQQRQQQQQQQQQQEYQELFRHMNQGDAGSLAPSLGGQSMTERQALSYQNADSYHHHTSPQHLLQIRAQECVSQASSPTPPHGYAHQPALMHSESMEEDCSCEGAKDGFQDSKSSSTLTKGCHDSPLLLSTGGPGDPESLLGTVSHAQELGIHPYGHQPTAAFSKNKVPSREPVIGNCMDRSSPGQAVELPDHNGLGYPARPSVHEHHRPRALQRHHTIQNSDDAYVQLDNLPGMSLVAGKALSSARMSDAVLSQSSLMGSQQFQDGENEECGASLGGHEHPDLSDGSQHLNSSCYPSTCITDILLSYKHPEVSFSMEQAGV
# Procedure, shortened: (§9)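 ADP-Glo luminescent assay of ADP formed by SIK2 or SIK3 with substrate after ATP addition, 120 min at RT. Remaining ATP depleted 40 min, then ADP converted to ATP and read by luciferase luminescence after 30 min. Controls: 1% DMSO and 10 μM staurosporine (final).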
# SIK2 = target: T2, SIK2 (Homo sapiens, UniProt Q9H0K1); experiment: ADP-Glo kinase assay, SIK2; format: biochemical; conditions: ADP-Glo SIK kinase assay
# T2 construct: purchased ThermoFisher Scientific PV4792
# T2 sequence (Q9H0K1 whole entry): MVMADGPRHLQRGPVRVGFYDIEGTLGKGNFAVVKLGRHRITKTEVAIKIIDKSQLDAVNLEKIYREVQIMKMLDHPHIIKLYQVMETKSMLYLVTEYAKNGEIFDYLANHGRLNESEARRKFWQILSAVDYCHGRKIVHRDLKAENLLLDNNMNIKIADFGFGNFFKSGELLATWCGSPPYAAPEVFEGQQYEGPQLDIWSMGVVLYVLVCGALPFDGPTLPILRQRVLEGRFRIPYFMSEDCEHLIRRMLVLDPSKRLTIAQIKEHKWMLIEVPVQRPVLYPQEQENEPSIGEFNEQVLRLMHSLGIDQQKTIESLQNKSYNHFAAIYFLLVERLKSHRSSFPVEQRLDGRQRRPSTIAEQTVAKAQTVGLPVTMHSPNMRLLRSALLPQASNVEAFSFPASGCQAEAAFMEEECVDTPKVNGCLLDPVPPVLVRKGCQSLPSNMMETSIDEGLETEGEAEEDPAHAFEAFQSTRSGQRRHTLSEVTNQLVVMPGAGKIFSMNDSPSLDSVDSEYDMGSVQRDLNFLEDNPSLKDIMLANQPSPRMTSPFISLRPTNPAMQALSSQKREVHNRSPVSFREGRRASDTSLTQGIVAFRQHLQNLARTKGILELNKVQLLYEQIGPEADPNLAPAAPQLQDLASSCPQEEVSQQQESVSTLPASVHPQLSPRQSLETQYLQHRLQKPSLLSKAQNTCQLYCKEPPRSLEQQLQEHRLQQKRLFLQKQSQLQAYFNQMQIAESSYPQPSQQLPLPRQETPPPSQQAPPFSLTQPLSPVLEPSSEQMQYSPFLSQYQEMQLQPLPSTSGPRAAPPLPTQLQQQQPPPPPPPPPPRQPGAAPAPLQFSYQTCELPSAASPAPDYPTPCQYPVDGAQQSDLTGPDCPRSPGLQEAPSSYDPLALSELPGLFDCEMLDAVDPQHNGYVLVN
# Procedure, shortened: as §9
# SIK1 = target: T3, SIK1 (Homo sapiens, UniProt P57059); experiment: ADP-Glo kinase assay, SIK1; format: biochemical; conditions: ADP-Glo SIK kinase assay
# T3 construct: purchased Carna Biosciences 02-131
# T3 sequence (P57059 whole entry): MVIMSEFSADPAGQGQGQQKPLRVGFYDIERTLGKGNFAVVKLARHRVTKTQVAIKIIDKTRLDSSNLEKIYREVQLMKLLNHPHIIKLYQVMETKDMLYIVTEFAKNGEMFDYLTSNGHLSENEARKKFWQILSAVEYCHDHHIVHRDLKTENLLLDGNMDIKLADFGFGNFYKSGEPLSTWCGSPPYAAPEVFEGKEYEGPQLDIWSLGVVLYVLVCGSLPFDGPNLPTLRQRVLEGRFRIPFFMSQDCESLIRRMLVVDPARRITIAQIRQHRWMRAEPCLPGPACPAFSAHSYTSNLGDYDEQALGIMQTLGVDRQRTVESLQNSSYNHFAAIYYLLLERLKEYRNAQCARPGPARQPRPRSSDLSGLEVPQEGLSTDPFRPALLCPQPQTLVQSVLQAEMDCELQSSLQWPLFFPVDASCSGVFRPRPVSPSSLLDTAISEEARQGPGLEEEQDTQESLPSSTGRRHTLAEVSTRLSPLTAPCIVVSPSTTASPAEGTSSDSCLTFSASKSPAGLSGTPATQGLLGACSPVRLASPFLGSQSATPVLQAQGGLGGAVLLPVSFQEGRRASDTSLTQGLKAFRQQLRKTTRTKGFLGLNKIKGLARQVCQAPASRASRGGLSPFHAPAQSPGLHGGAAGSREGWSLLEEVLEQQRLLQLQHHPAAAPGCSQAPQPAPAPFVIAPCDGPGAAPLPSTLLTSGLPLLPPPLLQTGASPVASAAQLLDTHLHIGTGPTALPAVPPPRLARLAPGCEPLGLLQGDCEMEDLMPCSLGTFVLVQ
# Procedure, shortened: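 Wells with 1% DMSO or 10 μM staurosporine (final) define the control window. The kinase reaction with substrate and ATP runs 120 min at RT, followed by ADP-Glo detection: ATP depletion (40 min) and ADP-derived luminescence (30 min).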
EC50 ([2]; 4 h) [nM],IC50 (SIK3) [nM],IC50 (SIK2) [nM],IC50 (SIK1) [nM],SMILES,IL-10 FCmax median [1],EC50 [2] [nM]
0.1 to 100,0.01 to 10,0.01 to 10,0.01 to 10,"COc1cc(-c2cnc3cc(OCC4CCCN(C(C)C)C4)ccn23)cc(OC(F)F)c1C(=O)NC1CC1 (stereo not drawn) [compound 280, N-cyclopropyl-2-(difluoromethoxy)-4-[7-[(1-isopropyl-3-piperidyl)methoxy]imidazo [1,2-a]pyridin-3-yl]-6-methoxy-benzamide]",++ (>1.5-4.5),–
100 to 1000,0.01 to 10,0.01 to 10,10 to 100,"COc1cc(-c2cnc3cc(OCCOCCN4CCN(C(C)C)CC4)ccn23)cc(OC(F)F)c1C(=O)NC1CC1 [compound 298, N-cyclopropyl-2-(difluoromethoxy)-4-[7-[2-[2-(4-isopropylpiperazin-1-yl)ethoxy]ethoxy]imidazo [1,2-a]pyridin-3-yl]-6-methoxy-benzamide]",+++ (>4.5),–
0.1 to 100,0.01 to 10,0.01 to 10,10 to 100,"COc1cc(-c2cnc3cc(OCC4CCN(C5COC5)C4)ccn23)cc(OC(F)F)c1C(=O)NC1CC1 (stereo not drawn) [Cpd 288, N-cyclopropyl-2-(difluoromethoxy)-6-methoxy-4-[7-[[1-(oxetan-3-yl)pyrrolidin-3-yl]methoxy]imidazo[1,2-a]pyridin-3-yl]benzamide]",+++ (>4.5),–
100 to 1000,0.01 to 10,0.01 to 10,10 to 100,"COc1cc(-c2cnc3cc(OCC(O)CN4CC(O)(C(F)(F)F)C4)ccn23)cc(OC(F)F)c1C(=O)NC1CC1 (stereo not drawn) [compound 375, N-cyclopropyl-2-(difluoromethoxy)-4-[7-[2-hydroxy-3-[3-hydroxy-3-(trifluoromethyl)azetidin-1-yl]propoxy]imidazo[1,2-a]pyridin-3-yl]-6-methoxy-benzamide]",+++ (>4.5),–
0.1 to 100,0.01 to 10,0.01 to 10,10 to 100,"COc1cc(-c2cnc3cc(OCCCN4C(C)CCCC4C)ccn23)cc(OC(F)F)c1C(=O)NC1CC1 (stereo not drawn) [compound 290, N-cyclopropyl-2-(difluoromethoxy)-4-[7-[3-(2,6-dimethyl-1-piperidyl)propoxy]imidazo [1,2-a]pyridin-3-yl]-6-methoxy-benzamide]",+++ (>4.5),–
0.1 to 100,0.01 to 10,0.01 to 10,10 to 100,"COc1cc(-c2cnc3cc(OCCCN4CC(O)C(F)(F)C4)ccn23)cc(OC(F)F)c1C(=O)NC1CC1 (stereo not drawn) [compound 345, N-cyclopropyl-4-[7-[3-(3,3-difluoro-4-hydroxy-pyrrolidin-1-yl)propoxy]imidazo[1,2-a]pyridin-3-yl]-2-(difluoromethoxy)-6-methoxy-benzamide]",+++ (>4.5),–
0.1 to 100,0.01 to 10,0.01 to 10,10 to 100,"COc1cc(-c2cnc3cc(OCC(O)CN4CC(C(=O)OC(C)(C)C)C4)ccn23)cc(OC(F)F)c1C(=O)NC1CC1 (stereo not drawn) [compound 394, tert-butyl 1-[3-[3-[4-(cyclopropylcarbamoyl)-3-(difluoromethoxy)-5-methoxy-phenyl]imidazo[1,2-a]pyridin-7-yl]oxy-2-hydroxy-propyl]azetidine-3-carboxylate]",++ (>1.5-4.5),–
100 to 1000,0.01 to 10,0.01 to 10,10 to 100,"COc1cc(-c2cnc3cc(OCCCN4CCCCC4)ccn23)cc(OC(F)F)c1C(=O)N1CC(O)(C(F)(F)F)C1 [compound 354, [2-(difluoromethoxy)-6-methoxy-4-[7-[3-(1-piperidyl)propoxy]imidazo[1,2-a]pyridin-3-yl]phenyl]-[3-hydroxy-3-(trifluoromethyl)azetidin-1-yl]methanone]",+++ (>4.5),–
0.1 to 100,0.01 to 10,0.01 to 10,10 to 100,"CCOC(=O)C1(C)CN(CCCOc2ccn3c(-c4cc(OC)c(C(=O)NC5CC5)c(OC(F)F)c4)cnc3c2)C1 [compound 385, ethyl 1-[3-[3-[4-(cyclopropylcarbamoyl)-3-(difluoromethoxy)-5-methoxy-phenyl]imidazo[1,2-a]pyridin-7-yl]oxypropyl]-3-methyl-azetidine-3-carboxylate]",+++ (>4.5),–
0.1 to 100,0.01 to 10,0.01 to 10,10 to 100,"COc1cc(-c2cnc3cc(OCCCN4CCC(F)(CO)CC4)ccn23)cc(OC(F)F)c1C(=O)NC1CC1 [compound 360, N-cyclopropyl-2-(difluoromethoxy)-4-[7-[3-[4-fluoro-4-(hydroxymethyl)-1-piperidyl]propoxy]imidazo [1,2-a]pyridin-3-yl]-6-methoxy-benzamide]",++ (>1.5-4.5),–
100 to 1000,0.01 to 10,0.01 to 10,10 to 100,"COc1cc(-c2cnc3cc(OCCCN4CCC5(COC5)C4)ccn23)cc(OC(F)F)c1C(=O)NC1CC1 [compound 285, N-cyclopropyl-2-(difluoromethoxy)-6-methoxy-4-[7-[3-(2-oxa-7-azaspiro[3.4]octan-7-yl)propoxy]imidazo[1,2-a]pyridin-3-yl]benzamide]",+++ (>4.5),–

SMILES,EC50 ([2]; 4 h) [nM],IC50 (SIK3) [nM],IC50 (SIK2) [nM],IC50 (SIK1) [nM],IL-10 FCmax median [1],EC50 [2] [nM]
"COc1cc(-c2cnc3cc(OC4C[C@H]5CC[C@@H](C4)N5)ccn23)cc(OC(F)F)c1C(=O)NC1CC1.Cl (stereo partly drawn) [Cpd 270, 4-[7-[[(1R,5S)-8-azabicyclo[3.2.1]octan-3-yl]oxy]imidazo[1,2-a]pyridin-3-yl]-N-cyclopropyl-2-(difluoromethoxy)-6-methoxy-benzamide hydrochloride salt]",–,0.01 to 10,10 to 100,100 to 500,++ (>1.5-4.5),1000 to 5000
